Test results from patent US20260217743A1, “ETHER OF PHOSPHATIDYLCHOLINE AND PHOSPHATIDYLETHANOLAMINE, THEIR LYSO-FORMS AND MIXTURE THEREOF FOR USE IN THE TREATMENT OF A DISEASE OR DISORDER CAUSED BY A DEFICIENCY IN PLASMALOGENS” (Baker Heart and Diabetes Institute, priority 2023, published 2026).

Assays:
3T3-L1 cells = test: LPC(O)/LPE(O) supplementation with different SN1 compositions in 3T3-L1 cells, PE(P) level and composition; type: cell-based, mouse; conditions: 20 μM, 24 hours
Excerpt: The method employed in this study was the same as described in example 5, with the exception of the cell line and culture medium used. For this study, a mouse fibroblast/pre-adipocyte cell line, 3T3-L1, was utilised and cultured in Dulbecco's Modified Eagle Medium (DMEM) (Gibco, USA), supplemented with 1% sodium pyruvate (Gibco, USA) and 10% newborn calf serum (Gibco, New Zealand).

RAW 264.7 cells = test: LPC(O)/LPE(O) supplementation with different SN1 compositions in RAW 264.7 cells, PE(P) level and composition; type: cell-based, mouse; conditions: 20 μM, 24 hours
Method: A mouse macrophage cell line, RAW 264.7 was used for this study. The cells were cultured at 37° C. with 5% CO2 in Roswell Park Memorial Institute (RPMI) 1640 medium containing L-glutamine with 1% sodium pyruvate (Gibco, USA) and 10% fetal bovine serum (Gibco, USA). The cells were passaged every week and the media replenished every two to three days until passage 30, at which point these cells were discarded. The cells were seeded in a 12-well plate at a concentration of 300,000 cells/ml of media and allowed to grow until they reached 80% confluency.
To assess the incorporation of plasmalogen precursors into cellular plasmalogens, cells were supplemented with compounds with different SN1 compositions, i.e., varying proportions of O-16:0, O-18:0, and O-18:1 of LPC(O) or LPE(O) at a concentration of 20 μM (Table 14). The plasmalogen precursors, LPC(O), and LPE(O), were dissolved in chloroform:methanol (2:1), evaporated under a stream of nitrogen gas at 40° C., and then reconstituted in RPMI medium with 2% bovine serum albumin (Sigma-Aldrich, USA). The control treatment for the cells consisted of RPMI with 2% bovine serum albumin. Once prepared, the media containing the precursors were vortexed and sonicated in an ultrasonic water bath (Soniclean, Adelaide, SA, Australia) for 15 minutes.
Lipids were extracted from cells using the butanol-methanol method, following established protocols. […] These vials were then frozen at −80° C. until they were ready for mass spectrometry analysis.
A targeted lipidomic approach using LC-MS/MS, following a previously published protocol (Huynh, et al., “High-Throughput Plasma Lipidomics: Detailed Mapping of the Associations with Cardiometabolic Risk Factors,” Cell Chem. Biol., 2019 Jan. 17; 26(1):71-84.e4, doi: 10.1016/j.chembiol.2018.10.008), was utilised for the samples from this study. […] Multiple lipid species belonging to different lipid classes including phosphatidylcholine (PC), alkylphosphatidylcholine [PC(O)], alkenylphosphatidylcholine [PC(P)], phosphatidylethanolamine (PE), alkylphosphatidylethanolamine [PE(O)], alkenylphosphatidylethanolamine [PE(P)] or PE plasmalogen, lysophosphatidylcholine (LPC), lysoalkylphosphatidylcholine [LPC(O)], lysoalkenylphosphatidylcholine [LPC(P)], lysophosphatidylethanolamine (LPE), lysoalkylphosphatidylethanolamine [LPE(O)], lysoalkenylphosphatidylethanolamine [LPE(P)], triacylglycerol (TG) and alkyldiacylglycerol [TG(O)] were measured. The lipid species measured in this study are listed in Supplementary Table 1, which is included at the end of this Example. […]
For data processing, vendor software Qualitative Analysis B.07.00 and QQQ Quantitative Analysis B.10.0.0 were utilized. Relative quantification of lipid species was determined by comparing them to the corresponding internal standards. […]

SMILES	cellular PE(P) levels (3T3-L1 cells)	efficacy in elevating the endogenous PE(P) level (RAW 264.7 cells)
CCCCCCCC/C=C\CCCCCCCCOC[C@@H](O)COP(=O)(O)OCCN [LPE(O-18:1) 100%]	appeared to reduce these levels	comparatively less effective
CCCCCCCCCCCCCCCCOC[C@@H](O)COP(=O)([O-])OCC[N+](C)(C)C [LPC(O-16:0) 100%]	–	greater efficacy
CCCCCCCCCCCCCCCCOC[C@@H](O)COP(=O)(O)OCCN [LPE(O-16:0) 100%]	–	equal effectiveness
CCCCCCCCCCCCCCCCCCOC[C@@H](O)COP(=O)(O)OCCN [LPE(O-18:0) 100%]	–	equal effectiveness
